Tests used:
[1] = system: transgenic AD mice; settings: cited from earlier work
[2] = system: glutathione reductase and superoxide desmutases; settings: periods of days to weeks; cited from earlier work
[3] = system: animals; settings: 20-40 mg/kg/day over 3 to 4 months; cited from earlier work
[4] = capsules or different food sources; cited from earlier work
[5] = cited from earlier work
[6] = system: neurons; settings: cited from earlier work
[7] = scyllo-inositol levels in CSF of AD patients; format: in vivo, human; settings: 250 mg BID
[8] = clinical safety review of scyllo-inositol (ELND005) studies; format: in vivo, human; settings: clinical studies of up to 2.5 years
Procedure: In the completed studies, […] have been exposed to at least a single dose of ELND005 (161 unique healthy subjects in Phase 1 studies, 306 unique patients in Phase 2 studies). The 306 Mild and Moderate AD patients were treated with ELND005 doses of up to 2000 mg BID. In the completed Phase 2 studies, the duration of treatment was up to 2.5 years with the 250-mg BID dose. The Phase 2 AD studies provided a total of 370.2 patient-years of exposure at any dose. At the dose of 250 mg BID, there have been a total of 154.8 patient-years of exposure in AD patients.
Of the 161 healthy subjects who received ELND005 in Phase 1 studies, 87 were between the ages of 18 and 54 years (inclusive) and 74 were between ages of 55 and 81 years (inclusive). The dose range was 70 to 7000 mg in single-dose studies and 200 to 3000 mg BID in multiple-dose studies for up to 10 days. Patients with AD were treated with 250 mg BID to 2000 mg BID.

[9] = system: rats; settings: rat, in vivo, 6 months
[10] = system: mild and moderate AD patients; assay: phase 2 study of scyllo-inositol 250 mg BID in mild and moderate AD patients over 78 weeks; format: in vivo, human
Excerpt: The inclusion of mild AD patients with an MMSE score of 20 and 21 was sufficient to mask the efficacy observed in mild AD patients with an MMSE from 22-26.
Scyllo-inositol is a drug that, in oral form, crosses the blood-brain barrier to achieve low mM levels in the blood. […] See McLaurin, J. et. al., J Mol. Biol. (1998): 183-194. […] The population of AD patients in the study was mild to moderate Alzheimer's disease having MMSE of 16-26. […] See Salloway, et al. Neurology 2011; 77:1253-1262.
A randomized, double blind placebo-controlled study phase 2 study explored the safety and efficacy of 250 mg BID administered to mild and moderate AD patients over 78 weeks. One of the primary endpoints used to measure changes in cognition was the Neuropsychological Test Battery (NTB) as well as measuring the levels of biomarkers in the CSF such as Amyloid beta 42 and phosphorylated Tau. The primary analysis compared 250 mg BID […] and placebo (n=82) in mild to moderate patients, and an additional pre-specified analysis was performed in the placebo and treated mild AD patients. […] Similar trends were also observed in other cognition and function tests such CSR-SoB and ADCS-ADL.

[11] = system: Alzheimer transgenic mouse model; settings: cited from earlier work
[12] = system: mild and moderate AD patients; settings: cited from earlier work
[13] = molecular target: T1, amyloid beta (Homo sapiens, UniProt P05067); assay: in vitro formation and breakdown of amyloid beta oligomers, aggregates and fibrils; format: biochemical; settings: approximately
T1 construct: cleaved by alpha and beta secretases, producing free amyloid beta peptide
Excerpt: Scyllo-inositol is a natural sugar found in many nutrients, including coconut, carrots, grapes and citrus fruits.
Thus, our target concentration in the CSF (which we assume to be similar to the interstitial fluid in the brain) is approximately 2-5 ugm/ml.

[14] = system: hippocampal slices; settings: infusion in rat brain, toxic amyloid beta oligomers; cited from earlier work
[15] = system: dogs
[16] = nine phase 1 studies; cited from earlier work

T1 sequence (P05067 672-713 limits assumed): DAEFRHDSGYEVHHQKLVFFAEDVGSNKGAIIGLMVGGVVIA

Q: What does the source list for O=c1cc(-c2ccc(O)cc2)oc2cc(O)cc(O)c12 [apigenin, 4′,5,7-trihydroxyflavone]?
A: amyloid beta half life ([1]; Transgenic AD mice, not observed with deleted Aquaporin 4 gene): significantly reduced; efficacy dose observed in animal models ([1]; approximately): 20 to 40 mg/kg/day; increase of clearance of amyloid beta in the brain ([1]; mouse, in vivo): 30-40%; aquaporin channels on perivascular astrocytes ([1]; transgenic AD mice): increased the expression and localization; cognition ([1]; transgenic AD mice): reversed the loss in cognition to normal levels; reduction of amyloid beta 42 burden ([1]; transgenic mouse model): 20-30%; level of apigenin resulting in elevated glutathione reductase and superoxide desmutases [2]: 3.5-4.5 mgs per day; adverse events [3]: No adverse events; adverse events [4]: No signs of adverse events; water solubility [5]: reduced water solubility

Q: For O[C@H]1[C@H](O)[C@@H](O)[C@H](O)[C@@H](O)[C@@H]1O [scyllo-inositol], which “amyloid beta binding to neurons and neurotoxicity” value [6] is on record?
A: prevent amyloid beta binding to neurons and reduced neurotoxicity

Q: And the “average scyllo-inositol levels in CSF” value [7]?
A: 15 µg/mL

Q: And the “dose considered safe for long-term use” value [8]?
A: 250 mg BID

Q: And the “dose safe with no observed pathologies” value [9]?
A: up to 2500 mg/kg/day

Q: And the “efficacy on cognition and function by MMSE subgroup” value ([10]; mild AD patients with MMSE score of 22-26)?
A: more pronounced

Q: What about the NTB score ([10]; mild AD patients, 250 mg BID) of the same compound?
A: very strong signal in improvement

Q: And the “parameters measured in the NTB that showed improvement” value ([10]; mild AD patients, 250 mg BID)?
A: 7 of the 9

Q: And the changes in cognition ([10]; mild to moderate patient population, 250 mg BID)?
A: not statistically significant

Q: And the “reduction of amyloid beta 42 in the brain” value ([11]; 10 mg/kg and 30 mg/kg)?
A: 20-30%

Q: And the “reduction of number of plaques” value ([11]; 10 mg/kg and 30 mg/kg)?
A: 25-50%

Q: And the “cognition in Morris Water maze test” value ([11]; oral treatment)?
A: comparable to normal animals

Q: What about the “subgroup analysis versus placebo” value ([12]; MMSE 23-26, 250 mg BID) of the same compound?
A: did not achieve statistical significance

Q: And the “primary endpoints NTB and/or ADCS-ADL versus placebo” value ([12]; full analysis set, 250 mg BID, 78 weeks, MMSE 16-26)?
A: no statistical significance

Q: What about the “efficacy on NTB, CDR-SoB, ADCS-ADL and ADAS-Cog” value ([12]; mild and moderate AD patients, overall population) of the same compound?
A: failed to show efficacy

Q: What about the “primary endpoints NTB and ADCS-ADL, preventing decline versus placebo” value ([12]; per-protocol sets, 250 mg BID, 78 weeks) of the same compound?
A: no statistically significant different

Q: And the “concentration sufficient to prevent formation of oligomers and break down amyloid beta aggregates and fibrils” value [13]?
A: 2-5 ugms/ml

Q: And the long term potentiation [14]?
A: restores long term potentiation

Q: What about the “dose safe and no pathologies” value ([15]; dog, in vivo, 12 months) of the same compound?
A: 300 mg/kg/day

Q: What about the adverse events ([15]; dogs, 2000 mg/kg/day for 12 months, skin inflammation, gingivitis and pneumonia) of the same compound?
A: some mild adverse events

Q: What about the “blood brain barrier passage” value [16] of the same compound?
A: crosses the blood brain barrier

Q: And the “plasma levels versus dose” value [16]?
A: dose proportional increase

— US20260076986A1 (priority 2022, published 2026)
